Measured values published in PMC9541843, “N‐terminal alterations turn the gut hormone GLP‐2 into an antagonist with gradual loss of GLP‐2 receptor selectivity towards more GLP‐1 receptor interaction” (British Journal of Pharmacology, 2022).
Peptide text beside a SMILES is read from it. * marks the point of attachment. C16 diacid = O=C(O)CCCCCCCCCCCCCCC(=O)*

Assays:
human GLP‐1R [1] = target: T1, human GLP‐1R (Homo sapiens, UniProt P43220); assay: cAMP accumulation, agonism (selectivity)
human GLP‐2R [2] = target: T2, human GLP‐2R (Homo sapiens, UniProt O95838); assay: cAMP accumulation, inhibition of GLP‐2‐induced activation
T2 sequence (O95838 1-553): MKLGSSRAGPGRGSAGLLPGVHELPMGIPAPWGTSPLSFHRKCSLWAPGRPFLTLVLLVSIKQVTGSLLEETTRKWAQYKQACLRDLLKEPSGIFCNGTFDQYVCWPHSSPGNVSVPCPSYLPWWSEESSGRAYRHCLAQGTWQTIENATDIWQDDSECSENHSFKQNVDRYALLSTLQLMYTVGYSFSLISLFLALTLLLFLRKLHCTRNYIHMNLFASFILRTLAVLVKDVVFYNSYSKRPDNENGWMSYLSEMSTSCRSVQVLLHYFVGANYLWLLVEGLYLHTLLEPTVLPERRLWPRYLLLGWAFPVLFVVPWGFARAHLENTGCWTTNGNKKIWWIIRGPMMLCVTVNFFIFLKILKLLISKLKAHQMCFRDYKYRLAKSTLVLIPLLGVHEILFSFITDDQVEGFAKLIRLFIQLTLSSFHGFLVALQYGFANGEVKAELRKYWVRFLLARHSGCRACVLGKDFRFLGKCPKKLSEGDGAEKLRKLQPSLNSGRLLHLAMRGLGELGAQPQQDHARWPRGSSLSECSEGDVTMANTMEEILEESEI

human GLP‐1R [3] = target: T1, human GLP‐1R; assay: cAMP accumulation, inhibition of GLP‐1‐mediated response (selectivity); conditions: for inhibition at 1 µM: COS-7, read-out: Inhibition of GLP‐1‐mediated cAMP response at the human GLP‐1R
human GLP‐2R [4] = target: T2, human GLP‐2R; assay: cell-based; conditions: SEM
Procedure: After incubation, the cells were washed twice in 400 μl per well ice‐cold binding buffer and lysed using 500 μl per well of 200 mM NaOH with 1% SDS for 30 min. The samples were counted using the Wizard Gamma Counter (PerkinElmer, Waltham, MA).

human GLP‐2R [5] = target: T2, human GLP‐2R; assay: cAMP accumulation, agonism (HitHunter cAMP assay); conditions: SEM
human GLP‐2R [6] = target: T2, human GLP‐2R; assay: Schild plot analysis of cAMP activation curve of GLP‐2; format: cell-based; parameters: host or cells: COS-7 (transient, calcium phosphate); conditions: COS‐7 cells, n = 5 in duplicate, read-out: Ki from Schild plot (pA2) (converted)
Procedure: Statistical significance was accepted at P < 0.05.
We used a Schild plot approach, where we examined their ability to right‐shift the cAMP activation curve of native GLP‐2 (Figure 4a–d). For GLP‐2(2‐33), GLP‐(3‐33) and GLP‐2(4‐33), all having intrinsic activity, the Schild plot analysis was based on an equieffective DR (the concentrations at 60% of Emax). For GLP‐2(3‐33)[D3A], with no intrinsic activity, the Schild plot analysis was conducted based on the shift in the EC50 values for GLP‐2 with and without GLP‐2(3‐33)[D3A] as previously described (Sparre‐Ulrich et al., [2017]).

T1 sequence (P43220 24-463): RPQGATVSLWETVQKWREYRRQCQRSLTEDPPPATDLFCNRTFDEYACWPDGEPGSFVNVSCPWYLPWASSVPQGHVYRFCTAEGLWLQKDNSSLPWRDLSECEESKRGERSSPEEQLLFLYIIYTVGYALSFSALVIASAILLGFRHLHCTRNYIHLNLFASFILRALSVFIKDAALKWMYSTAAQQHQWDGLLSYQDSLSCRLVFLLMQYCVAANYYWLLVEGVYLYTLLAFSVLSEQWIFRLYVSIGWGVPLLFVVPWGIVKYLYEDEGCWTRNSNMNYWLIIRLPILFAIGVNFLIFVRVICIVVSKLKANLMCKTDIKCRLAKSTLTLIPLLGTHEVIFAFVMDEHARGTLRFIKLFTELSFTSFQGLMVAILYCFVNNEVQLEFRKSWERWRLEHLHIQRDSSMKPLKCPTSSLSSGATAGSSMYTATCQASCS

CC[C@H](C)[C@H](NC(=O)[C@H](Cc1ccccc1)NC(=O)[C@H](CC(=O)O)NC(=O)[C@H](CCCNC(=N)N)NC(=O)[C@H](C)NC(=O)[C@H](C)NC(=O)[C@H](CC(C)C)NC(=O)[C@H](CC(N)=O)NC(=O)[C@H](CC(=O)O)NC(=O)[C@H](CC(C)C)NC(=O)[C@@H](NC(=O)[C@@H](NC(=O)[C@H](CC(N)=O)NC(=O)[C@H](CCSC)NC(=O)[C@H](CCC(=O)O)NC(=O)[C@H](CC(=O)O)NC(=O)[C@H](CO)NC(=O)[C@H](Cc1ccccc1)NC(=O)[C@H](CO)NC(=O)CNC(=O)CCCCCCCCCCCCCCC(=O)O)[C@@H](C)O)[C@@H](C)CC)C(=O)N[C@@H](CC(N)=O)C(=O)N[C@@H](Cc1c[nH]c2ccccc12)C(=O)N[C@@H](CC(C)C)C(=O)N[C@H](C(=O)N[C@@H](CCC(N)=O)C(=O)N[C@H](C(=O)N[C@@H](CCCCN)C(=O)N[C@H](C(=O)N[C@H](C(=O)N[C@@H](CC(=O)O)C(=O)O)[C@@H](C)O)[C@@H](C)CC)[C@@H](C)O)[C@@H](C)CC [GLP‐2(4‐33)(C16‐diacid/4)] ({C16 diacid}-GSFSDEMNTILDNLAARDFINWLIQTKITD-OH)
EC50 (human GLP‐1R [1]): 2.5 nM
Efficacy of GLP‐1R activation (human GLP‐1R [1]; COS‐7 cells, human GLP‐1R, cAMP, 1 μM stimulation, n = 3 in duplicate): 16%
IC50 (human GLP‐2R [2]): 11.7 nM
Inhibition of GLP‐2‐induced cAMP at the human GLP‐2R (human GLP‐2R [2]; at 1 μM peptide (highest tested concentration), COS‐7 cells): 95%
IC50 (human GLP‐1R [3]): 79 nM
inhibition at 1 µM (human GLP‐1R [3]): 41%

CC[C@H](C)[C@H](NC(=O)[C@H](Cc1ccccc1)NC(=O)[C@H](CC(=O)O)NC(=O)[C@H](CCCNC(=N)N)NC(=O)[C@H](C)NC(=O)[C@H](C)NC(=O)[C@H](CC(C)C)NC(=O)[C@H](CC(N)=O)NC(=O)[C@H](CC(=O)O)NC(=O)[C@H](CC(C)C)NC(=O)[C@@H](NC(=O)[C@@H](NC(=O)[C@H](CC(N)=O)NC(=O)[C@H](CCSC)NC(=O)[C@H](CCC(=O)O)NC(=O)[C@H](CC(=O)O)NC(=O)[C@H](CO)NC(=O)[C@H](Cc1ccccc1)NC(=O)[C@H](CO)NC(=O)CNC(=O)[C@H](CC(=O)O)NC(=O)[C@H](C)N)[C@@H](C)O)[C@@H](C)CC)C(=O)N[C@@H](CC(N)=O)C(=O)N[C@@H](Cc1c[nH]c2ccccc12)C(=O)N[C@@H](CC(C)C)C(=O)N[C@H](C(=O)N[C@@H](CCC(N)=O)C(=O)N[C@H](C(=O)N[C@@H](CCCCN)C(=O)N[C@H](C(=O)N[C@H](C(=O)N[C@@H](CC(=O)O)C(=O)O)[C@@H](C)O)[C@@H](C)CC)[C@@H](C)O)[C@@H](C)CC [GLP‐2(2‐33)] (H-ADGSFSDEMNTILDNLAARDFINWLIQTKITD-OH)
IC50 (human GLP‐2R [4]): 7.94 nM
Emax (human GLP‐2R [5]; COS-7, read-out: cAMP activation Emax ± SEM): 20 ± 3.2%
EC50 (human GLP‐2R [5]): 7.94 nM
Ki (human GLP‐2R [6]): 40 nM
IC50 (human GLP‐2R [2]): 174 nM
inhibition at 1 µM (human GLP‐1R [3]): 30 to 38%
